Assay results: patent US6716858B1, “Methods for inhibiting diabetic complications” (Kansas University Medical Center, priority 1995, dated 2004)
Where two headings read alike, the source gives them in different places.

Key:
[1] = Drug and metabolite levels in plasma and urine, STZ diabetic rat study; type: in vivo; conditions: for concentration at 28 weeks / concentration at 21 week: rat, plasma, oral; for concentration at 28 weeks: diabetic animals; for concentration at 21 week: week 21, 4 animals, read-out: Pyridoxamine in plasma
Description: Animal studies. Diabetes was induced by a single tail vein injection of 45 mg/kg of STZ in 0.1 M sodium citrate buffer, pH 4.5. Control animals were sham injected with buffer only. Diabetes was confirmed by measuring blood glucose levels at 2 and 3 days after the STZ-injection. Animals with plasma glucose higher than 16 mM were classified as diabetic. The diabetic rats were divided randomly into an untreated diabetic group (n=12) and two diabetic treatment groups, receiving either PM (n=13) or AG (n=12) at 1 g/L in drinking water. Two non-diabetic control groups were included, one receiving no treatment (n=13), the other receiving PM(HCl)2 at 2 g/L in drinking water (n=12); the higher dose of PM in the PM-treated control group was designed to compensate, in part, for the lower water intake of non-diabetic, compared to diabetic animals. All animals were housed individually with a light dark cycle of 12 hours each, and had free access to food and water. To maintain body weight and to limit hyperglycemia, diabetic animals received 3 IU of ultralente insulin (Humulin U, Eli Lilly) three times per week; this was increased to 5 IU after week 15 to adjust for the increase in body weight.
Measurement of drug levels in plasma and urine. PM and AG concentrations in plasma were measured by reverse phase high performance liquid chromatography (RP-HPLC). PM and its B6 vitamers were assayed as described by Sampson and O'Connor (Nutrition Res. 9:259-272 (1989)) and Sakurai et al. (J. Nutr. Sci. Vitaminol. 37:341-348 (1991)), using 293/393 nm excitation and emission wavelengths. AG was quantified at 380 nm as the 4-nitrobenzaldehyde conjugate (Beaven et al. 1969. J. Pharmacol. Exp. Therapeutics 165:14-22).

[2] = test system: AGE formation during uninterrupted glycation of human methemoglobin (Hb) by ribose; assay: Uninterrupted ribose glycation assay, Hb; type: biochemical; conditions: 0.05 M ribose, 3 weeks
Description: ELISA detection of AGE products. The general method of Engvall (1981, Methods Enzymol. 70:419-439) was used to perform the ELISA. Typically, glycated protein samples were diluted to approximately 1.5 ug/ml in 0.1 M sodium carbonate buffer of pH 9.5 to 9.7. The protein was coated overnight at room temperature onto 96-well polystyrene plates by pippetting 200 ul of the protein solution in each well (0.3 ug/well). After coating, the protein was washed from the wells with a saline solution containing 0.05% Tween-20. The wells were then blocked with 200 ul of 1% casein in carbonate buffer for 2 h at 37° C. followed by washing. […] In order to minimize background readings, antibodies R479 used to detect glycated RNase were raised against glycated BSA, and antibodies R618 used to detect glycated BSA and glycated Hb were raised against glycated RNase. […] The p-nitrophenylphosphate substrate solution was then added (200 ul/well) to the plates, with the absorbance of the released p-nitrophenolate being monitored at 410 nm with a Dynatech MR 4000 microplate reader.
Uninterrupted ribose glycation assays Bovine serum albumin, ribonuclease A, and human hemoglobin were incubated with ribose at 37° C. in 0.4 M sodium phosphate buffer of pH 7.5 containing 0.02% sodium azide. […] Aliquots were taken and immediately frozen until analyzed by ELISA at the conclusion of the reaction. […]

[3] = Metabolic conversions and bioavailability of pyridoxamine, plasma B6 vitamers by HPLC; type: in vivo, rat; conditions: 25 mg/kg/day pyridoxamine in drinking water, after 48 hours; n=4
Description: In addition to the glycated albumin studies, we carried out an investigation of the bioavailability of pyridoxamine when introduced through drinking water, and its possible redistribution into the vitamin B6 pool. Determination of the common B6 vitamers in plasma was carried out by HPLC methods as described below. Rats (n=4) were kept in standard cages as in the other experiments and were given pyridoxamine at 25 mg/kg/day for 48 hours, following which blood samples were withdrawn intra-cardially for serum analysis of the B6 vitamers. The concentrations were compared to endogenous B6 vitamer levels of control rats.
The procedures of Sampson and O° Connor (Nutrition Res. 9:259-272 (1989)) and Sharma and Dakshinamurti (Sampson and O° Connor J Nutr 119:1940-8, (1989) Sharma and Dakshinamurti, J Chromatogr 578:45-51, (1992)) were followed, using a Shimadzu HPLC with RF-551 fluorescence monitor. Excitation was at 328 nm and emission was followed at 393 nm. An Ultremex C18 guard column (30×4.6 mm, 5 micron particle size) (Phenomenex) preceded an Ultremex C18 ion-pair column (octadecylsilane, 150×4.6 mm, 3 micron particle size) (Phenomenex). Solvent A contained 0.033 M phosphoric acid and 0.008 M 1-octanesulfonic acid, adjusted to pH 2.2 with 6 N KOH. Solvent B contained 0.033 M phsophoric acid and 10% (v/v) 2-propanol, adjusted to pH 7.5 with 6 N KOH. […]

Compound | concentration at 28 weeks ([1]; 1 g/L in drinking water) [µM] | inhibition of overall kinetics of AGE formation from ribose [2] | elevation of plasma pyridoxamine, steady state to endogenous level [3] | urinary PM ([1]; 23 weeks, PM intake 801±22 μmol/day) [µmol/day] | plasma PM concentration ([1]; non-diabetic animals, PM(HCl)2 2 g/L in drinking water, from first week) [µM] | concentration at 21 week ([1]; 1 g/L in drinking water, Diabetic + PM (1 g/L)) [µM] | concentration at 21 week ([1]; 2 g/L in drinking water, Control + PM (2 g/L)) [µM]
N=C(N)NN [aminoguanidine, reference compound] | 87 ± 10 | – | – | – | – | – | –
Cc1ncc(CO)c(CN)c1O [pyridoxamine] | 106 ± 17 | showed the greatest inhibition at concentrations of 3 mM and above | approximately 300 fold | 824 ± 44 | ~6 | 76 ± 18 | 6.3 ± 2.1
